Assay results from patent US8481546B2, “CGRP receptor antagonist” (Bristol-Myers Squibb Company, priority 2010, dated 2013).
≈ marks a conversion by molar mass, not a printed value. Where two headings read alike, the source gives them in different places.

Experiments:
[1] = Aqueous solubility, pH dependence; assay type: physicochemical
Procedure: Solid free base was mixed with carbonate, and ethanolamine buffers. The pH of a third sample was adjusted with HCl. The solids were mixed with the vehicles using a mixer that was enclosed within an incubator set to 25 C. After equilibration, samples of the supernatant were withdrawn, diluted as appropriate, and analyzed by HPLC.
Crystalline Compound I converted to a gelatinous phase during measurement of the pH solubility profile. The absence of a crystalline phase in equilibrium with water prevents a confident assessment of the pH range in which Compound I can be formulated as a thermodynamically stable solution. Efforts to generate a crystalline free base form of Compound I that can be equilibrated in water are ongoing.

[2] = One-week comparative intranasal irritation study in rats: toxicokinetics; conditions: male, rat, in vivo; for Cmax / Tmax / AUC(0-t) / half-life: inhaled or intranasal; for concentration at 24 h: other: intranasal instillation
Procedure: This study was conducted to compare potential nasal irritation of Compound I to Compound III when given intranasally to male rats for 1 week. Male rats (10/group) were instilled intranasally with Compound I or Compound III solutions ([…] in 225 mM succinic acid, 0.02% benzalkonium chloride, 1.25% anhydrous dextrose, pH 5.8-6.2) once daily at a dose volume of 100 μL/nostril. Using this dosing paradigm, fixed doses of 5, 15 or 35 mg of test article were delivered daily. As a consequence, dosages normalized to body weight decreased with time as the rats grew. One control group was given succinate vehicle and a sham control group was given saline by intranasal instillation. Parameters evaluated included clinical observations, body weight, food consumption, toxicokinetics, and histological evaluation of nasal tissues.

[3] = Pharmacokinetics in the rabbit after IV and IN administration; assay type: in vivo, New Zealand White rabbits
Procedure: The feasibility of nasal delivery was assessed in the IN rabbit model by comparing the plasma concentration-time profiles and pharmacokinetic parameters (Cmax, Tmax, AUC and bioavailability) for nasally delivered Compound I to that delivered by the IV route. The dosing solution concentration and delivery volume are included in the data tables for each study. Vehicle compositions are described in the footnotes below the table.
Groups of three male New Zealand White rabbits, ranging in weight from 3-3.5 kg, received a single dose of drug in one of the following treatments: 0.5 mg/kg IV bolus injection over 30 seconds, or 0.3-3 mg/kg IN administered with a syringe microsprayer. Prior to IN dosing, rabbits were lightly sedated to effect with the inhalant anesthetic, Sevoflurane. The rabbits regained consciousness in 2-5 min. Serial blood samples were collected in heparin-containing vacutainers at predose, 2, 5, 10, 15, 30 min and 1, 2, 4, 6, and 24 hours post-dose. Blood samples were immediately centrifuged at 4° C. and the separated plasma stored at −80° C. until further analysis by the LC/MS/MS assay.

[4] = 5 mg, intranasal 5 mg (0.357 mg/cm^2) once daily, Day 0
[5] = 5 mg, intranasal 5 mg (0.357 mg/cm^2) once daily, Day 6
[6] = 15 mg, intranasal 15 mg (1.07 mg/cm^2) once daily, Day 0
[7] = 15 mg, intranasal 15 mg (1.07 mg/cm^2) once daily, Day 6
[8] = 35 mg, intranasal 35 mg (2.50 mg/cm^2) once daily, Day 0
[9] = 35 mg, intranasal 35 mg (2.50 mg/cm^2) once daily, Day 6
[10] = male, New Zealand White, plasma, IV 0.5 mg/kg

Cc1cc(C[C@@H](NC(=O)N2CCC(c3cc4ccccc4[nH]c3=O)CC2)C(=O)N2CCN(C3CCN(C)CC3)CC2)cc2cn[nH]c12 [Compound I, (R)—N-(3-(7-methyl-1H-indazol-5-yl)-1-(4-(1-methylpiperidin-4-yl)piperazin-1-yl)-1-oxopropan-2-yl)-4-(2-oxo-1,2-dihydroquinolin-3-yl)piperidine-1-carboxamide]
solubility ([1]; Partial titration of Compound I with HCl, pH = 8.5, 25 C): 105000 µg/mL (≈ 164000 µM) | solubility ([1]; aqueous buffer, thermodynamic from solid, Carbonate buffer, pH = 10.4, 25 C, read-out: Solubility): 200 µg/mL (≈ 313 µM) | solubility ([1]; aqueous buffer, thermodynamic from solid, Ethanolamine buffer, pH = 9.4, 25 C, read-out: Solubility): 500 µg/mL (≈ 783 µM) | solubility ([1]; aqueous media, aqueous buffer, thermodynamic from solid, pH < 8.5, 25 C, read-out: Solubility): > 300000 µg/mL | Cmax [2, 4]: 330 nM | Tmax [2, 4]: 0.5 h | AUC(0-t) ([2]; 5 mg, intranasal 5 mg (0.357 mg/cm^2) once daily, Day 0, read-out: Composite AUC0-24 h): 1.6 µM·h | half-life ([2]; 5 mg, intranasal 5 mg (0.357 mg/cm^2) once daily, Day 0, read-out: Mean T1/2 (converted)): 426 min | Cmax [2, 5]: 660 nM | Tmax [2, 5]: 1 h | AUC(0-t) ([2]; 5 mg, intranasal 5 mg (0.357 mg/cm^2) once daily, Day 6, read-out: Composite AUC0-24 h): 2.6 µM·h | half-life ([2]; 5 mg, intranasal 5 mg (0.357 mg/cm^2) once daily, Day 6, read-out: Mean T1/2 (converted)): 336 min | Cmax [2, 6]: 2200 nM | Tmax [2, 6]: 1 h | AUC(0-t) ([2]; 15 mg, intranasal 15 mg (1.07 mg/cm^2) once daily, Day 0, read-out: Composite AUC0-24 h): 4.6 µM·h | half-life ([2]; 15 mg, intranasal 15 mg (1.07 mg/cm^2) once daily, Day 0, read-out: Mean T1/2 (converted)): 306 min | Cmax [2, 7]: 830 nM | Tmax [2, 7]: 0.5 h | AUC(0-t) ([2]; 15 mg, intranasal 15 mg (1.07 mg/cm^2) once daily, Day 6, read-out: Composite AUC0-24 h): 5.2 µM·h | half-life ([2]; 15 mg, intranasal 15 mg (1.07 mg/cm^2) once daily, Day 6, read-out: Mean T1/2 (converted)): 402 min | Cmax [2, 8]: 1500 nM | Tmax [2, 8]: 2 h | AUC(0-t) ([2]; 35 mg, intranasal 35 mg (2.50 mg/cm^2) once daily, Day 0, read-out: Composite AUC0-24 h): 7.9 µM·h | Cmax [2, 9]: 1200 nM | Tmax [2, 9]: 1 h | AUC(0-t) ([2]; 35 mg, intranasal 35 mg (2.50 mg/cm^2) once daily, Day 6, read-out: Composite AUC0-24 h): 5.4 µM·h | half-life ([2]; 35 mg, intranasal 35 mg (2.50 mg/cm^2) once daily, Day 6, read-out: Mean T1/2 (converted)): 360 min | concentration at 24 h ([2]; 5 mg, intranasal 5 mg (0.357 mg/cm^2) once daily, Day 0, read-out: Mean C24 h): 22 nM | concentration at 24 h ([2]; 5 mg, intranasal 5 mg (0.357 mg/cm^2) once daily, Day 6, read-out: Mean C24 h): 15 nM | concentration at 24 h ([2]; 15 mg, intranasal 15 mg (1.07 mg/cm^2) once daily, Day 0, read-out: Mean C24 h): 17 nM | concentration at 24 h ([2]; 15 mg, intranasal 15 mg (1.07 mg/cm^2) once daily, Day 6, read-out: Mean C24 h): 59 nM | concentration at 24 h ([2]; 35 mg, intranasal 35 mg (2.50 mg/cm^2) once daily, Day 0, read-out: Mean C24 h): 120 nM | concentration at 24 h ([2]; 35 mg, intranasal 35 mg (2.50 mg/cm^2) once daily, Day 6, read-out: Mean C24 h): 36 nM | time drug was detected in plasma post-dose ([3]; IN): at least 6 h | time drug was detected in plasma post-dose ([3]; IN, high dose): up to 24 hr | Plasma levels ([3]; IN, measured within 5 min): > 10 nM | MRT [3, 10]: 22.8 ± 9 min | clearance [3, 10]: 7.9 ± 3 mL/min/kg | half-life [3, 10]: 78 ± 15.6 min | AUC ([3]; male, New Zealand White, plasma, IV 0.5 mg/kg, n = 3, Mean ± SD): 1.8 ± 0.58 µM·h | Vd ([3]; male, New Zealand White, plasma, IV 0.5 mg/kg, read-out: Vss): 0.16 ± 0.01 L/kg | Cmax ([3]; male, New Zealand White, plasma, inhaled or intranasal, 0.3 mg/kg, IN low dose 0.3 mg/kg (10 mg/ml), n = 3, Mean ± SD): 120 nM | bioavailability ([3]; male, New Zealand White, plasma, inhaled or intranasal, 0.3 mg/kg, IN low dose 0.3 mg/kg, read-out: Bioavailability (F %)): 12.5 ± 6.56% | Cmax ([3]; male, New Zealand White, plasma, inhaled or intranasal, 1 mg/kg, IN mid-dose 1.0 mg/kg (30 mg/ml), n = 3, Mean ± SD): 550 ± 260 nM | bioavailability ([3]; male, New Zealand White, plasma, inhaled or intranasal, 1 mg/kg, IN mid-dose 1.0 mg/kg, read-out: Bioavailability (F %)): 18.8 ± 8.96% | Cmax ([3]; male, New Zealand White, plasma, inhaled or intranasal, 3 mg/kg, IN high dose 3.0 mg/kg (100 mg/ml), n = 3, Mean ± SD): 2030 ± 1000 nM | bioavailability ([3]; male, New Zealand White, plasma, inhaled or intranasal, 3 mg/kg, IN high dose 3.0 mg/kg, read-out: Bioavailability (F %)): 30.2 ± 10.8% | Cmax ([3]; male, New Zealand White, plasma, inhaled or intranasal, 3 mg/kg, IN, range over 0.3, 1, and 3 mg/kg): 120 to 2000 nM | bioavailability ([3]; male, New Zealand White, plasma, inhaled or intranasal, 3 mg/kg, IN, range over 0.3, 1, and 3 mg/kg, read-out: absolute bioavailability): 13 to 30% | AUC ([3]; male, New Zealand White, plasma, inhaled or intranasal, IN high dose 3.0 mg/kg (100 mg/ml), n = 3, Mean ± SD): 3.27 ± 1.17 µM·h | Tmax ([3]; male, New Zealand White, plasma, inhaled or intranasal, IN high dose 3.0 mg/kg, read-out: Tmax): 19.8 min | AUC ([3]; male, New Zealand White, plasma, inhaled or intranasal, IN low dose 0.3 mg/kg (10 mg/ml), n = 3, Mean ± SD): 0.14 ± 0.07 µM·h | Tmax ([3]; male, New Zealand White, plasma, inhaled or intranasal, IN low dose 0.3 mg/kg, read-out: Tmax): 15 min | AUC ([3]; male, New Zealand White, plasma, inhaled or intranasal, IN mid-dose 1.0 mg/kg (30 mg/ml), n = 3, Mean ± SD): 0.69 ± 0.33 µM·h | Tmax ([3]; male, New Zealand White, plasma, inhaled or intranasal, IN mid-dose 1.0 mg/kg, read-out: Tmax): 15 min | Tmax ([3]; male, New Zealand White, plasma, inhaled or intranasal, IN, all doses studied, read-out: time to reach peak concentrations (Tmax)): 12 to 18 min | Cmax ([3]; male, New Zealand White, plasma, iv, 0.5 mg/kg, IV 0.5 mg/kg, n = 3, Mean ± SD): 13700 ± 1800 nM
